The values that follow come from US20260193293A1, “PEPTIDES CAPABLE OF INHIBITING PROTEIN-PROTEIN INTERACTIONS AT GABAB1A SUBUNIT AND USES THEREOF” (UNIVERSITY OF COPENHAGEN, priority 2022, published 2026).

Each structure is given as a SMILES string. Read-outs that look alike come from different tables or passages of the source. Non-standard residues stand in square brackets, D forms with d. Residues, ends and D or L forms follow the SMILES beside them. NMeR = CN[C@@H](CCCNC(=N)N)C(=O)O

The target of the experiment is Sushi domains (SD1/2) protein. Description: Fluorescence polarization (FP) competition assay with AJAP-1probe, calculated Ki. The format is binding. In outline:
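Ki values were derived from IC50s (sigmoidal fits, ≥ triplicate), with probe Kd obtained by saturation titration of SD1/2. Peptides displaced a 25 nM TAMRA-labelled probe; polarization read at 530/580 nm in 1% BSA-containing PBS, pH 7.4, room temperature.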

Setting [1] is: Table 5, elongation and truncation scan of AJAP-1 binding epitope, read-out: Ki (nM) mean ± SEM.
Where [2] appears, read: CPP tagged peptides overview, SD1/2 binding affinity, mean ± SEM, n ≥ 3, read-out: Ki.
[3] abbreviates: Table 14, CPPs tagged peptides, read-out: Ki (nM) mean ± SEM.
The mark [4] stands for this setting: Table 12, deep mutational scanning validation variants of PIANPWT, read-out: Ki (nM) mean ± SEM.
Setting [5] is: Table 11, deep mutational scanning validation variants of AJAP-1WT, read-out: Ki (nM) mean ± SEM.
The mark [6] stands for this setting: Table 7, Ala-, D-amino acids and N-methylation scans of APPWT, read-out: Ki (nM) mean ± SEM.

Consider `CC[C@H](C)[C@H](NC(=O)[C@H](C)NC(=O)[C@H](Cc1c[nH]c2ccccc12)NC(=O)[C@@H]1CCCN1C(C)=O)C(=O)N[C@H](C(=O)N[C@@H](Cc1c[nH]c2ccccc12)C(=O)NCC(=O)N1CCC[C@H]1C(=O)N[C@H](C(=O)N[C@H](C(=O)N[C@@H](CO)C(=O)N(C)[C@@H](CCCNC(=N)N)C(=O)N[C@@H](CCC(=O)O)C(=O)N[C@@H](CC(=O)O)C(N)=O)C(C)C)[C@@H](C)O)C(C)C` (Ac-PWAIVWGPTVS[NMeR]ED-NH2), for which the Ki (Table 9, Ala-, D-amino acids and N-methylation scans of PIANPWT, read-out: Ki (nM) mean ± SEM) was 502 ± 15 nM.
Take `CC[C@H](C)[C@H](NC(=O)[C@H](Cc1ccccc1)NC(=O)[C@H](CCC(=O)O)NC(C)=O)C(=O)N[C@@H](C)C(=O)N[C@@H](Cc1c[nH]c2ccccc12)C(=O)NCC(=O)N1CCC[C@H]1C(=O)N[C@H](C(=O)NCC(=O)N[C@@H](CC(=O)O)C(=O)N[C@@H](CCC(=O)O)C(=O)N[C@@H](CC(=O)O)C(N)=O)[C@@H](C)O` [EFIAWGPTGDED] (Ac-EFIAWGPTGDED-NH2): the Ki under setting [1] was 112 ± 1 nM.
For `CC[C@H](C)[C@H](NC(=O)[C@H](Cc1c[nH]c2ccccc12)NC(=O)[C@H](CC(=O)O)NC(=O)[C@H](CC(=O)O)NC(=O)[C@H](CC(=O)O)NC(=O)[C@H](CCC(=O)O)NC(=O)[C@H](CCCCN)NC(=O)[C@H](C)NC(=O)[C@H](C)NC(=O)[C@H](C)NC(=O)[C@H](CCC(=O)O)NC(=O)[C@H](CCCNC(=N)N)NC(=O)[C@H](CCCNC(=N)N)NC(=O)[C@H](CCCNC(=N)N)NC(=O)[C@H](CCCNC(=N)N)NC(=O)[C@H](CCCNC(=N)N)NC(=O)[C@H](CCCNC(=N)N)NC(=O)[C@H](CCCNC(=N)N)NC(=O)[C@H](CCCNC(=N)N)NC(C)=O)C(=O)N[C@@H](CC(=O)O)C(=O)N[C@@H](Cc1c[nH]c2ccccc12)C(=O)N[C@@H](Cc1ccc(O)cc1)C(=O)N[C@@H](CC(=O)O)C(=O)N[C@@H](CO)C(=O)N[C@@H](CC(=O)O)C(=O)N[C@@H](CC(=O)O)C(=O)N[C@@H](CC(=O)O)C(N)=O` [Peptide R8-RL-16] (Ac-RRRRRRRREAAAKEDDDWIDWYDSDDD-NH2), the Ki runs as follows: under setting [2], 314 ± 4 nM; under setting [3], 314 ± 4 nM.
As for `CC[C@H](C)[C@H](NC(=O)[C@H](Cc1c[nH]c2ccccc12)NC(=O)[C@@H]1CCCN1C(C)=O)C(=O)N[C@H](C(=O)N[C@H](C(=O)N[C@@H](Cc1c[nH]c2ccccc12)C(=O)NCC(=O)N1CCC[C@H]1C(=O)N[C@H](C(=O)N[C@H](C(=O)N[C@@H](CO)C(=O)N[C@@H](CCCNC(=N)N)C(=O)N[C@@H](CCC(=O)O)C(=O)N[C@@H](CC(=O)O)C(N)=O)C(C)C)[C@@H](C)O)C(C)C)[C@@H](C)CC` [PWIIVWGPTVSRED], the Ki under setting [4] is 339 ± 8 nM.
Regarding `CC[C@H](C)[C@H](NC(=O)[C@H](Cc1ccccc1)NC(=O)[C@H](CCC(=O)O)NC(=O)[C@@H](NC(=O)[C@H](CCC(=O)O)NC(C)=O)[C@@H](C)O)C(=O)N[C@@H](C)C(=O)N[C@@H](Cc1c[nH]c2ccccc12)C(=O)NCC(=O)N1CCC[C@H]1C(=O)N[C@H](C(=O)NCC(=O)N[C@@H](CC(=O)O)C(=O)N[C@@H](CCC(=O)O)C(=O)N1CCC[C@H]1C(N)=O)[C@@H](C)O` (Ac-ETEFIAWGPTGDEP-NH2), the Ki under setting [5] is 41 ± 2 nM.
Take `CC(=O)N[C@@H](CCC(=O)O)C(=O)N[C@@H](CC(=O)O)C(=O)N[C@@H](CC(=O)O)C(=O)N[C@@H](CO)C(=O)N[C@@H](CC(=O)O)C(=O)N[C@H](C(=O)N[C@@H](C)C(=O)N[C@@H](Cc1c[nH]c2ccccc12)C(=O)NCC(=O)NCC(=O)N[C@@H](C)C(=O)N[C@@H](CC(=O)O)C(=O)N[C@H](C(=O)N[C@@H](CC(=O)O)C(N)=O)[C@@H](C)O)C(C)C` (Ac-EDDSDVAWGGADTD-NH2): under setting [6], the Ki was 8790 ± 92 nM.
Turning to `CC[C@H](C)[C@H](NC(=O)[C@H](Cc1ccccc1)NC(=O)[C@H](CO)NC(=O)[C@@H](NC(=O)[C@H](CCC(=O)O)NC(C)=O)[C@@H](C)O)C(=O)N[C@@H](C)C(=O)N[C@@H](Cc1c[nH]c2ccccc12)C(=O)NCC(=O)N1CCC[C@H]1C(=O)N[C@H](C(=O)NCC(=O)N[C@@H](CC(=O)O)C(=O)N[C@@H](CCC(=O)O)C(=O)N[C@@H](CC(=O)O)C(N)=O)[C@@H](C)O` [ETSFIAWGPTGDED] (Ac-ETSFIAWGPTGDED-NH2), the Ki under setting [5] is 34 ± 1 nM.
As to `CC[C@H](C)[C@H](NC(=O)[C@H](Cc1c[nH]c2ccccc12)NC(=O)[C@H](CC(=O)O)NC(=O)[C@H](CC(=O)O)NC(=O)[C@H](CC(=O)O)NC(=O)[C@H](CCC(=O)O)NC(C)=O)C(=O)N[C@@H](CC(=O)O)C(=O)N[C@@H](Cc1c[nH]c2ccccc12)C(=O)NCC(=O)N1CCC[C@H]1C(=O)N[C@H](C(=O)N[C@@H](CO)C(=O)N[C@@H](CC(=O)O)C(=O)N[C@@H](CC(=O)O)C(=O)N[C@@H](CC(=O)O)C(=O)NCC(=O)NCC(=O)NCC(=O)NCC(=O)N[C@@H](CO)C(=O)N[C@@H](CCCNC(=N)N)C(=O)N[C@@H](CCCNC(=N)N)C(=O)N[C@@H](CCCNC(=N)N)C(=O)N[C@@H](CCCNC(=N)N)C(=O)N[C@@H](CCCNC(=N)N)C(=O)N[C@@H](CCCNC(=N)N)C(=O)N[C@@H](CCCNC(=N)N)C(=O)N[C@@H](CCCNC(=N)N)C(N)=O)[C@@H](C)O` [Peptide 17-FL-R8] (Ac-EDDDWIDWGPTSDDDGGGGSRRRRRRRR-NH2), the Ki reads like this: under setting [2], 147 ± 9 nM; under setting [3], 147 ± 9 nM.
As to `CC[C@H](C)[C@H](NC(=O)[C@H](C)NC(=O)[C@H](Cc1c[nH]c2ccccc12)NC(=O)[C@H](CC(=O)O)NC(C)=O)C(=O)N[C@H](C(=O)N[C@@H](Cc1c[nH]c2ccccc12)C(=O)NCC(=O)N1CCC[C@H]1C(=O)N[C@H](C(=O)N[C@H](C(=O)N[C@@H](CO)C(=O)N[C@@H](CCCNC(=N)N)C(=O)N[C@@H](CCC(=O)O)C(=O)N[C@@H](CC(=O)O)C(N)=O)C(C)C)[C@@H](C)O)C(C)C` [DWAIVWGPTVSRED] (Ac-DWAIVWGPTVSRED-NH2), under setting [4], the Ki was 338 ± 1 nM.
Turning to `CC(=O)N[C@@H](CCC(=O)O)C(=O)N[C@@H](CC(=O)O)C(=O)N[C@@H](CC(=O)O)C(=O)N[C@@H](CO)C(=O)N[C@@H](CC(=O)O)C(=O)N[C@H](C(=O)N[C@@H](Cc1c[nH]c2ccccc12)C(=O)N[C@@H](Cc1c[nH]c2ccccc12)C(=O)NCC(=O)N1CCC[C@H]1C(=O)N[C@@H](C)C(=O)N[C@@H](CC(=O)O)C(=O)N[C@H](C(=O)N[C@@H](CC(=O)O)C(N)=O)[C@@H](C)O)C(C)C` (Ac-EDDSDVWWGPADTD-NH2), the Ki (Table 10, deep mutational scanning validation variants of APPWT, read-out: Ki (nM) mean ± SEM) was 332 ± 13 nM.
As for `CC(=O)N[C@@H](CCC(=O)O)C(=O)N[C@@H](CC(=O)O)C(=O)N[C@@H](C)C(=O)N[C@@H](CO)C(=O)N[C@@H](CC(=O)O)C(=O)N[C@H](C(=O)N[C@@H](Cc1c[nH]c2ccccc12)C(=O)N[C@@H](Cc1c[nH]c2ccccc12)C(=O)NCC(=O)NCC(=O)N[C@@H](C)C(=O)N[C@@H](CC(=O)O)C(=O)N[C@H](C(=O)N[C@@H](CC(=O)O)C(N)=O)[C@@H](C)O)C(C)C` (Ac-EDASDVWWGGADTD-NH2), the Ki under setting [6] was 1830 ± 54 nM.
With `CC[C@H](C)[C@H](NC(=O)[C@H](Cc1c[nH]c2ccccc12)NC(=O)[C@H](CC(=O)O)NC(=O)[C@H](CC(=O)O)NC(=O)[C@H](CC(=O)O)NC(=O)[C@H](CCC(=O)O)NC(=O)[C@H](CO)NC(=O)CNC(=O)CNC(=O)CNC(=O)CNC(=O)[C@H](CCCNC(=N)N)NC(=O)[C@H](CCCNC(=N)N)NC(=O)[C@H](CCCNC(=N)N)NC(=O)[C@H](CCCNC(=N)N)NC(=O)[C@H](CCCNC(=N)N)NC(=O)[C@H](CCCNC(=N)N)NC(=O)[C@H](CCCNC(=N)N)NC(=O)[C@H](CCCNC(=N)N)NC(C)=O)C(=O)N[C@@H](CC(=O)O)C(=O)N[C@@H](Cc1c[nH]c2ccccc12)C(=O)N[C@@H](Cc1ccc(O)cc1)C(=O)N[C@@H](CC(=O)O)C(=O)N[C@@H](CO)C(=O)N[C@@H](CC(=O)O)C(=O)N[C@@H](CC(=O)O)C(=O)N[C@@H](CC(=O)O)C(N)=O` [Peptide R8-FL-16] (Ac-RRRRRRRRGGGGSEDDDWIDWYDSDDD-NH2), the Ki was 280 ± 2 nM under setting [2] and 280 ± 2 nM under setting [3].
Regarding `CC[C@H](C)[C@H](NC(=O)[C@H](Cc1ccccc1)NC(=O)[C@H](CCC(=O)O)NC(=O)[C@@H](NC(=O)[C@H](C)NC(C)=O)[C@@H](C)O)C(=O)N[C@@H](C)C(=O)N[C@@H](Cc1c[nH]c2ccccc12)C(=O)NCC(=O)N1CCC[C@H]1C(=O)N[C@H](C(=O)NCC(=O)N[C@@H](CC(=O)O)C(=O)N[C@@H](CCC(=O)O)C(=O)N[C@@H](CC(=O)O)C(N)=O)[C@@H](C)O` [ATEFIAWGPTGDED] (Ac-ATEFIAWGPTGDED-NH2), under “Table 8, Ala-, D-amino acids and N-methylation scans of AJAP-1WT, read-out: Ki (nM) mean ± SEM”, the Ki was 53 ± 2 nM.
As to `CC(=O)N[C@@H](CCC(=O)O)C(=O)N[C@@H](CCC(=O)O)C(=O)N[C@@H](CC(=O)O)C(=O)N[C@@H](CC(=O)O)C(=O)N[C@@H](CO)C(=O)N[C@@H](CC(=O)O)C(=O)N[C@H](C(=O)N[C@@H](Cc1c[nH]c2ccccc12)C(=O)N[C@@H](Cc1c[nH]c2ccccc12)C(=O)NCC(=O)NCC(=O)N[C@@H](C)C(=O)N[C@@H](CC(=O)O)C(=O)N[C@H](C(=O)N[C@@H](CC(=O)O)C(=O)N[C@@H](Cc1ccc(O)cc1)C(=O)N[C@@H](C)C(=O)N[C@@H](CC(=O)O)C(=O)NCC(=O)NCC(=O)N[C@@H](CCC(=O)O)C(N)=O)[C@@H](C)O)C(C)C` (Ac-EEDDSDVWWGGADTDYADGGE-NH2), the Ki (Table 4, truncation and elongation scans of APP epitope, read-out: Ki (nM) mean ± SEM) is 351 ± 26 nM.
For `CC[C@H](C)[C@H](NC(=O)[C@H](Cc1ccccc1)NC(C)=O)C(=O)N[C@@H](C)C(=O)N[C@@H](Cc1c[nH]c2ccccc12)C(=O)NCC(=O)N1CCC[C@H]1C(=O)N[C@H](C(=O)NCC(=O)N[C@@H](CC(=O)O)C(=O)N[C@@H](CCC(=O)O)C(=O)N[C@@H](CC(=O)O)C(N)=O)[C@@H](C)O` [FIAWGPTGDED] (Ac-FIAWGPTGDED-NH2), the Ki under setting [1] was 118 ± 1 nM.
